From the NIST ThermoML archive (doi:10.1021/je200195q)
± gives the expanded uncertainty stated by the source. Each block holds one molecule with its values, some of them ahead of it.

Test: activity coefficient (dimensionless); of the first substance listed, at infinite dilution; xn = mol fraction of the nth substance listed
Conditions: 101 kPa, Liquid, Chromatography, x1 = 0

Structure (SMILES): Cc1cccc(C)c1 [1,3-dimethylbenzene] + CCCCn1cc[n+](C)c1.O=S(=O)([N-]S(=O)(=O)C(F)(F)C(F)(F)F)C(F)(F)C(F)(F)F
activity coefficient (322.55 K): 2.02 ± 0.14
activity coefficient (342.75 K): 2.03 ± 0.14
activity coefficient (362.65 K): 2.09 ± 0.14

Structure (SMILES): CCC(=O)CC [pentan-3-one] + CCCCn1cc[n+](C)c1.O=S(=O)([N-]S(=O)(=O)C(F)(F)C(F)(F)F)C(F)(F)C(F)(F)F
activity coefficient (322.55 K): 0.624 ± 0.043
activity coefficient (342.75 K): 0.656 ± 0.045
activity coefficient (362.65 K): 0.695 ± 0.047

activity coefficient (312.55 K): 4.87 ± 0.33
activity coefficient (322.45 K): 4.95 ± 0.34
activity coefficient (332.45 K): 3.51 ± 0.24
Structure (SMILES): CCCC=O [butanal] + CCn1cc[n+](C)c1.CS(=O)(=O)[O-]

Structure (SMILES): CCC[N+](=O)[O-] [1-nitropropane] + CCCCn1cc[n+](C)c1.O=S(=O)([N-]S(=O)(=O)C(F)(F)C(F)(F)F)C(F)(F)C(F)(F)F
activity coefficient (322.55 K): 0.769 ± 0.05
activity coefficient (342.75 K): 0.821 ± 0.053
activity coefficient (362.65 K): 0.756 ± 0.05

Structure (SMILES): CC1CCCC1 [methylcyclopentane] + CCCCCCCCCCn1cc[n+](CCCCCCCCCC)c1C.O=S(=O)([N-]S(=O)(=O)C(F)(F)F)C(F)(F)F
activity coefficient (323.1 K): 1.35 ± 0.088
activity coefficient (333.15 K): 1.33 ± 0.086
activity coefficient (343.15 K): 1.3 ± 0.084

Structure (SMILES): CCCCCCCCCCCC [dodecane] + CCCCn1cc[n+](C)c1.O=S(=O)([N-]S(=O)(=O)C(F)(F)C(F)(F)F)C(F)(F)C(F)(F)F
activity coefficient (322.55 K): 77.8 ± 5.3
activity coefficient (342.75 K): 62 ± 4.2
activity coefficient (362.65 K): 50.9 ± 3.5

Structure (SMILES): CCCCCCCCCC [decane] + CCCCn1cc[n+](C)c1.O=S(=O)([N-]S(=O)(=O)C(F)(F)C(F)(F)F)C(F)(F)C(F)(F)F
activity coefficient (322.55 K): 37.4 ± 2.6
activity coefficient (342.75 K): 33.3 ± 2.3
activity coefficient (362.65 K): 28 ± 1.9

Structure (SMILES): C1COCCO1 [1,4-dioxane] + CCn1cc[n+](C)c1.CS(=O)(=O)[O-]
activity coefficient (312.55 K): 2.67 ± 0.18
activity coefficient (322.45 K): 2.67 ± 0.18
activity coefficient (332.45 K): 2.66 ± 0.18

Structure (SMILES): ClC(Cl)(Cl)Cl [tetrachloromethane] + CCn1cc[n+](C)c1.CS(=O)(=O)[O-]
activity coefficient (312.55 K): 4.57 ± 0.31
activity coefficient (322.45 K): 4.79 ± 0.33
activity coefficient (332.45 K): 0.669 ± 0.045

Structure (SMILES): C1CCCCC1 [cyclohexane] + CCCCCCCCCCn1cc[n+](CCCCCCCCCC)c1C.O=S(=O)([N-]S(=O)(=O)C(F)(F)F)C(F)(F)F
activity coefficient (323.1 K): 1.32 ± 0.085
activity coefficient (333.15 K): 1.28 ± 0.083
activity coefficient (343.15 K): 1.26 ± 0.081

Structure (SMILES): Cc1ccc(C)cc1 [1,4-dimethylbenzene] + CCCCn1cc[n+](C)c1.O=S(=O)([N-]S(=O)(=O)C(F)(F)C(F)(F)F)C(F)(F)C(F)(F)F
activity coefficient (322.55 K): 2.05 ± 0.14
activity coefficient (342.75 K): 2.03 ± 0.14
activity coefficient (362.65 K): 2 ± 0.14

Structure (SMILES): ClCCl [dichloromethane] + CCCCn1cc[n+](C)c1.O=S(=O)([N-]S(=O)(=O)C(F)(F)C(F)(F)F)C(F)(F)C(F)(F)F
activity coefficient (322.55 K): 0.356 ± 0.033
activity coefficient (342.75 K): 0.436 ± 0.035
activity coefficient (362.65 K): 0.539 ± 0.039

Structure (SMILES): CCCC(C)=O [pentan-2-one] + CCCCn1cc[n+](C)c1.O=S(=O)([N-]S(=O)(=O)C(F)(F)C(F)(F)F)C(F)(F)C(F)(F)F
activity coefficient (322.55 K): 0.666 ± 0.045
activity coefficient (342.75 K): 0.686 ± 0.046
activity coefficient (362.65 K): 0.701 ± 0.047

Structure (SMILES): ClCCl [dichloromethane] + CCn1cc[n+](C)c1.CS(=O)(=O)[O-]
activity coefficient (312.55 K): 0.471 ± 0.037
activity coefficient (322.45 K): 0.531 ± 0.039
activity coefficient (332.45 K): 1.3 ± 0.084

Structure (SMILES): CC(C)CC(C)(C)C [2,2,4-trimethylpentane] + CCn1cc[n+](C)c1.CS(=O)(=O)[O-]
activity coefficient (312.55 K): 445 ± 31
activity coefficient (322.45 K): 387 ± 27
activity coefficient (332.45 K): 334 ± 23

Structure (SMILES): ClC(Cl)(Cl)Cl [tetrachloromethane] + CCCCn1cc[n+](C)c1.O=S(=O)([N-]S(=O)(=O)C(F)(F)C(F)(F)F)C(F)(F)C(F)(F)F
activity coefficient (322.55 K): 2.4 ± 0.16
activity coefficient (342.75 K): 2.35 ± 0.16
activity coefficient (362.65 K): 2.33 ± 0.16

Structure (SMILES): C[N+](=O)[O-] [nitromethane] + CCCCCC[n+]1ccn(C)c1.FC(F)(F)C(F)(F)[P-](F)(F)(F)(C(F)(F)C(F)(F)F)C(F)(F)C(F)(F)F
activity coefficient (312.8 K): 0.452 ± 0.036
activity coefficient (332.85 K): 0.438 ± 0.035
activity coefficient (354.65 K): 0.41 ± 0.034

Structure (SMILES): CC1CCCCC1 [methylcyclohexane] + CCCCCCCCCCn1cc[n+](CCCCCCCCCC)c1C.O=S(=O)([N-]S(=O)(=O)C(F)(F)F)C(F)(F)F
activity coefficient (323.1 K): 1.52 ± 0.1
activity coefficient (333.15 K): 1.48 ± 0.098
activity coefficient (343.15 K): 1.45 ± 0.095

Structure (SMILES): C#CCCCC [1-hexyne] + CCCCn1cc[n+](C)c1.O=S(=O)([N-]S(=O)(=O)C(F)(F)C(F)(F)F)C(F)(F)C(F)(F)F
activity coefficient (322.55 K): 2.86 ± 0.2
activity coefficient (342.75 K): 2.73 ± 0.19
activity coefficient (362.65 K): 2.64 ± 0.18

Structure (SMILES): CCCCCCCCC [nonane] + CCCCn1cc[n+](C)c1.O=S(=O)([N-]S(=O)(=O)C(F)(F)C(F)(F)F)C(F)(F)C(F)(F)F
activity coefficient (322.55 K): 31.5 ± 2.2
activity coefficient (342.75 K): 26 ± 1.8
activity coefficient (362.65 K): 21.8 ± 1.5

Structure (SMILES): C[N+](=O)[O-] [nitromethane] + CCn1cc[n+](C)c1.CS(=O)(=O)[O-]
activity coefficient (312.55 K): 2.06 ± 0.14
activity coefficient (322.45 K): 1.26 ± 0.081
activity coefficient (332.45 K): 0.801 ± 0.052
